# Experimental data as given in ChEMBL document CHEMBL1201862, “PubChem BioAssay data set” (2004).
# Calls of active or inactive are those of the source.
# Legend:
# [1] = MIN6 cell viability loss – mouse insulinoma, cytotoxicity control, dose response (AID 2122); format: functional;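 further: confirmatory high-throughput counterscreen run to flag cytotoxic compounds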
# [2] = target: T1, Histone-lysine N-methyltransferase NSD2 (Homo sapiens, UniProt O96028); format: biochemical
# T1 sequence (O96028 whole entry): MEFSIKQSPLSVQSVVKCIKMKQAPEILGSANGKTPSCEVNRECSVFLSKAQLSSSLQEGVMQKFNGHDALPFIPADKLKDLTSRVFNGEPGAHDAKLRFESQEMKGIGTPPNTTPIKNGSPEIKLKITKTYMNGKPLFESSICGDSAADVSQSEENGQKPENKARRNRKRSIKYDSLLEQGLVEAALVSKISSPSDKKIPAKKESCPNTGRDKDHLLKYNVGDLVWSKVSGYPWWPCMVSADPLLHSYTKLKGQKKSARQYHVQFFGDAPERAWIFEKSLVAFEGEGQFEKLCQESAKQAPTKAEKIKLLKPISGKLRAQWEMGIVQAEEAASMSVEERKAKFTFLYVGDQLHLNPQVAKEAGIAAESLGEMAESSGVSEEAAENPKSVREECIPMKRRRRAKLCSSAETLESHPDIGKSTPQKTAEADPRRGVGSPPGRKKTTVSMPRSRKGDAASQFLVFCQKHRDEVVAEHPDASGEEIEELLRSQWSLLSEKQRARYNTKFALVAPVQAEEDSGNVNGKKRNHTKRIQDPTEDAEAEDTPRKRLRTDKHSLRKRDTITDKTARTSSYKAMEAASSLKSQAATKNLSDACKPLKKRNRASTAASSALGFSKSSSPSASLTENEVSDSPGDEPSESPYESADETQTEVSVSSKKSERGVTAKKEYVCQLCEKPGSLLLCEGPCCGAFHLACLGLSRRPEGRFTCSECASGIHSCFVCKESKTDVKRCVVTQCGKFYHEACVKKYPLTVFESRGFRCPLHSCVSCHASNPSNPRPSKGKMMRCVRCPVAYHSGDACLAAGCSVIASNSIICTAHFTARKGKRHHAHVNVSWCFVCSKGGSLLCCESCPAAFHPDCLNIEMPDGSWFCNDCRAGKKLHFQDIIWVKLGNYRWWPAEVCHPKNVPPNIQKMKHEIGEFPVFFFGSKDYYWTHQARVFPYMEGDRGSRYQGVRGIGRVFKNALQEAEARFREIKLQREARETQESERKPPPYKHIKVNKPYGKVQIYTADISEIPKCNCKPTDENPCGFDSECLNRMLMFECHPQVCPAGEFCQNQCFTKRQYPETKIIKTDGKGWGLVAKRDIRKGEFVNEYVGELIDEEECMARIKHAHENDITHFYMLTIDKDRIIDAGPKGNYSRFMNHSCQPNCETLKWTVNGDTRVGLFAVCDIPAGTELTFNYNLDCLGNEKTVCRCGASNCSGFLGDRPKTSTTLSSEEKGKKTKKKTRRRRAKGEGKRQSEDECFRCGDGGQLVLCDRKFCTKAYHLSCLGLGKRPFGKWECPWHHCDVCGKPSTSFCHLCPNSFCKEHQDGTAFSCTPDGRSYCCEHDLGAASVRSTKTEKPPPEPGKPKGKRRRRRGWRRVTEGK
# [3] = decrease of insulin promoter-GFP reporter – imaging, high-content screening, mouse beta cells (AID 1628); format: functional; conditions: MIN6
# [4] = system: INS1; assay: INS-1E survival protection against cytokine death – cell-based, luminescence, retest, dose response (AID 449756); format: functional; conditions: Rattus norvegicus;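 further: cell death triggered by IL-1 beta plus TNF-alpha plus IFN-gamma mixture; protective hits raise ATP signal compared with cytokine alone wells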
# [5] = target: Melanocortin receptor 4 (Homo sapiens, UniProt P32245); format: functional, cell-based;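 further: Cell-based assay with luminescence read-out, confirmatory dose-response testing for agonist activity of biased ligands at MC4R; human U2OS cells with tagged receptor and beta-arrestin; potency of agonists that increase receptor coupling to beta-arrestin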
# [6] = target: T2, Small ubiquitin-related modifier 1 (Homo sapiens, UniProt P63165); assay: SUMO1 protein-protein binding blockers, potency – biochemical, FRET, dose response (AID 624383); format: functional; conditions: read-out: IC50_Mean
# [7] = target: T2, Small ubiquitin-related modifier 1; assay: SUMO1 protein interaction blockers, potency – biochemical, fluorescence polarization, uHTS hits, dose response (AID 624382); format: functional; conditions: read-out: IC50_Mean
# [8] = microbe, parasite or virus in culture; format: functional; conditions: Mycobacterium tuberculosis
# [9] = system: Vero; assay: viability of Vero cells under compound – cytotoxicity control for flavivirus capping enzyme inhibitors (AID 588742); format: functional; conditions: Chlorocebus sabaeus
# [10] = viability of uninfected HEp-2 cells – cell-based, HTS, cytotoxicity control for RSV inhibitor project, dose response (AID 2410); format: functional; conditions: human respiratory syncytial virus
# [11] = system: Vero; assay: cells; format: functional; conditions: Chlorocebus sabaeus
# [12] = target: T3, Rac GTPase-activating protein 1 (Homo sapiens, UniProt Q9H0H5); assay: blockers of MgcRacGAP-driven Rac1 GTP hydrolysis – biochemical, ADP Hunter fluorescence, primary and confirmatory, confirmation (AID 624330); format: functional
# T3 sequence (Q9H0H5 whole entry): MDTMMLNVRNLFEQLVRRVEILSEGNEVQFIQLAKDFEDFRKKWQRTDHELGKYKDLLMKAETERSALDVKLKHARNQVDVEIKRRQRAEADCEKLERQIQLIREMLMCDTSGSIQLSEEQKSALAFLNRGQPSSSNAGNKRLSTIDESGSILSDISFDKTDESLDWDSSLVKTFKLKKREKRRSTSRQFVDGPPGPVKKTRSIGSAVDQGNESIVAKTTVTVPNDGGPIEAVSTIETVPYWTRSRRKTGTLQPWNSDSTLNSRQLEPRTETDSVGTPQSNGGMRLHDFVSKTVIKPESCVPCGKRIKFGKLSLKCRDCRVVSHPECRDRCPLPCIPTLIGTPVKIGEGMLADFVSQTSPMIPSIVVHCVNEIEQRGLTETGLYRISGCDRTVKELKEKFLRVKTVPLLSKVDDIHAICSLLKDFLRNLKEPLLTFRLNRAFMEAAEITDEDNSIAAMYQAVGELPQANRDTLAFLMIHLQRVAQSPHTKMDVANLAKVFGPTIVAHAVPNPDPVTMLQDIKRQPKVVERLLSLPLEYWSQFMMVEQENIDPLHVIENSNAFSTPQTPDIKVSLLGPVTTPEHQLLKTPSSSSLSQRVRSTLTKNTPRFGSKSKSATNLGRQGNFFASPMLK
# [13] = target: Glucose-6-phosphate 1-dehydrogenase (Homo sapiens, UniProt P11413); assay: inhibition of Homo sapiens G6PD, dose series – biochemical, fluorescence, selectivity assay for P. falciparum G6PD inhibitor project, dose response (AID 504792); format: functional
# [14] = viability loss in HeLa cells – cytotoxicity control for MgcRacGAP inhibitor project, dose response (AID 624300); format: functional
# [15] = target: Protein Wnt-3a (Mus musculus, UniProt P27467); assay: antagonism of Wnt3a pathway luciferase reporter – Wnt-LIGHT cells, luminescence, selectivity assay for Gli-SUFU antagonist project, dose response (AID 651570); format: functional; conditions: read-out: IC50_Mean;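 further: Wnt-LIGHT reporter cells stimulated with conditioned medium from Wnt3a-producing cells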
# [16] = luciferase reporter signal suppression in cells – H4 neuroglioma cells, luminescence, dose response (AID 1990); format: functional, cell-based
# [17] = alpha-synuclein stem-loop luciferase translation blockers – H4 neuroglioma cells, luminescence, confirmation (AID 1988); format: functional, cell-based
# [18] = Luminescence Cell-Based Dose Response HTS to Identify Inhibitors of 5'UTR Stem-Loop Driven Prion Protein mRNA Translation in H4 Neuroglioblastoma Cells. [Related pubchem assays: 1827 (Project Summary), 1813 (Primary HTS)]; format: functional
# [19] = target: T4, Probable nicotinate-nucleotide adenylyltransferase (Staphylococcus aureus (strain N315), UniProt P65502); format: functional, Staphylococcus aureus subsp. aureus N315;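 on IC50 Mean: confirmatory dose-response retesting of NadD inhibitor hits first found in an ultra-high-throughput screen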
# [20] = target: T4, Probable nicotinate-nucleotide adenylyltransferase; format: functional, Staphylococcus aureus subsp. aureus N315; conditions: read-out: IC50_Mean
# [21] = target: Photoreceptor-specific nuclear receptor (Homo sapiens, UniProt Q9Y5X4); format: functional, cell-based;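 further: CHO-S cells with Gal4-NCOR and VP16-NR2E3 two-hybrid luciferase reporter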
# [22] = target: T5, Adenosylmethionine-8-amino-7-oxononanoate aminotransferase (Mycobacterium tuberculosis, UniProt P9WQ81); assay: Mycobacterium tuberculosis BioA enzyme inhibitor Measured in Biochemical System Using Plate Reader - 2163-02_Inhibitor_Dose_CherryPick_Activity.; format: functional, Mycobacterium tuberculosis UT205
# T5 sequence (P9WQ81 whole entry): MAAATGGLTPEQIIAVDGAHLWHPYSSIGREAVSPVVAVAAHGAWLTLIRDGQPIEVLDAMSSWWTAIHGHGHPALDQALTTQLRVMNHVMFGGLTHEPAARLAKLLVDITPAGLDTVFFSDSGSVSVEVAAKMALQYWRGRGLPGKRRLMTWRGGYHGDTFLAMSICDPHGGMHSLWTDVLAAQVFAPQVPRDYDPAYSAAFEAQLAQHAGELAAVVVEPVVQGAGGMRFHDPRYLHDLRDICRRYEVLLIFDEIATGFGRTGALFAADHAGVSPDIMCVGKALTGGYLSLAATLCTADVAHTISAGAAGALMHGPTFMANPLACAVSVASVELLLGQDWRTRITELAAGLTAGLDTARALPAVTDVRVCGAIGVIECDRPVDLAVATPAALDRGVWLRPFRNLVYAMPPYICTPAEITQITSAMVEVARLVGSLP
# [23] = Luminescence Cell-Based Dose Retest to Confirm Inhibitors of Cancer Stem Cells. [Related pubchem assays (depositor defined):AID2717, AID2721]; format: functional; conditions: Homo sapiens
# [24] = target: T6, Low molecular weight phosphotyrosine protein phosphatase (Homo sapiens, UniProt P24666); format: functional; conditions: read-out: IC50_Mean;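 further: Dose-response confirmation assay measuring inhibition of LMPTP enzyme activity by fluorescence intensity read-out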
# T6 sequence (P24666 whole entry): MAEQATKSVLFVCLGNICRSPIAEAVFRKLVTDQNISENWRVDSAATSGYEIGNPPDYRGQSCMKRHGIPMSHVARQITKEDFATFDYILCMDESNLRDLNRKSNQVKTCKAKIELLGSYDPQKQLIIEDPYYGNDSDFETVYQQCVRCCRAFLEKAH
# [25] = target: T7, Endoribonuclease toxin MazF (Escherichia coli K-12, UniProt P0AE70); assay: substrate-only fluorescence increase artefacts – biochemical, single-stranded RNase substrate, counter-screen for MazEF activator project, dose response (AID 588502); format: functional
# T7 sequence (P0AE70 whole entry): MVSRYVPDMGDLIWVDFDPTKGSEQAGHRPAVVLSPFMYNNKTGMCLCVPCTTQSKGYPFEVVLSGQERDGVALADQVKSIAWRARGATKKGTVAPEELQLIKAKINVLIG
# [26] = target: T7, Endoribonuclease toxin MazF; assay: activation of MazEF endoribonuclease cleavage – biochemical, fluorescence, single-stranded RNA substrate, uHTS hits, dose response (AID 588481); format: functional
# [27] = target: Genome polyprotein (dengue virus type 2, UniProt P29990); assay: flavivirus cap methylation enzyme inhibition – biochemical, confirmation dose response, primary screen (AID 588689); format: functional
# Genome polyprotein, sequence (P29990 2492-3391 limits assumed): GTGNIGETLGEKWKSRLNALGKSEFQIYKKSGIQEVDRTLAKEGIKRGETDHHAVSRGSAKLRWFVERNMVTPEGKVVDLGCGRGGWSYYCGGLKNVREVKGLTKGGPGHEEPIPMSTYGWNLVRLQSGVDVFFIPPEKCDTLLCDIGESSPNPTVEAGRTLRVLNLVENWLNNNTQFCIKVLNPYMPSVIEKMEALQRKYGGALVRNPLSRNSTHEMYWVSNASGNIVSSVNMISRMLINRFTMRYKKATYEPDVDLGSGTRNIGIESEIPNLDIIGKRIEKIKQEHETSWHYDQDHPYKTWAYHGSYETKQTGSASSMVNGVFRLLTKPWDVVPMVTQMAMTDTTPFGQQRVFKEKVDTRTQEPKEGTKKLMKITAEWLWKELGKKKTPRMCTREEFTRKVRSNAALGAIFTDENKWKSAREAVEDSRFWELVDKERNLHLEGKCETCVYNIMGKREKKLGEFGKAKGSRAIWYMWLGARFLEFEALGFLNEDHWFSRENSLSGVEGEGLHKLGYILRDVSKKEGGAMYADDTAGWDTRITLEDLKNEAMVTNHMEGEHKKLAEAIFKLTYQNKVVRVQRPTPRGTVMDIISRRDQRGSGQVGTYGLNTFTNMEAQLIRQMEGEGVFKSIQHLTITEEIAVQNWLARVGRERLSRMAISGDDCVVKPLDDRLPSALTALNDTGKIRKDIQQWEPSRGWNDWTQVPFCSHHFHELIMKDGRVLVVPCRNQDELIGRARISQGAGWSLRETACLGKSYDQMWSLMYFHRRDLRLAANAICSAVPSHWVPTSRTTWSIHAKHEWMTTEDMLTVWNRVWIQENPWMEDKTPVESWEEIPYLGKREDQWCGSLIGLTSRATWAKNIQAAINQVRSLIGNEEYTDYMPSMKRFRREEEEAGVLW
# Melanocortin receptor 4, sequence (P32245 whole entry): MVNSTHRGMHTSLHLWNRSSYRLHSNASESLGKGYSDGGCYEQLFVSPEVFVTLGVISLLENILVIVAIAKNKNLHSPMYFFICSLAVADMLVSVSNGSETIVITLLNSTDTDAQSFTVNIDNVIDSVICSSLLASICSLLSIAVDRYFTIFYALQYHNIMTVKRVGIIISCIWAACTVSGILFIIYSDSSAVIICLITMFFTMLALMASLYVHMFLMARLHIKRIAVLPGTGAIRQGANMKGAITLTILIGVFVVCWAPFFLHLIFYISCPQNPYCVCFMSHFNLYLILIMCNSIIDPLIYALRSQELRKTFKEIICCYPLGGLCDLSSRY
# T4 sequence (P65502 whole entry): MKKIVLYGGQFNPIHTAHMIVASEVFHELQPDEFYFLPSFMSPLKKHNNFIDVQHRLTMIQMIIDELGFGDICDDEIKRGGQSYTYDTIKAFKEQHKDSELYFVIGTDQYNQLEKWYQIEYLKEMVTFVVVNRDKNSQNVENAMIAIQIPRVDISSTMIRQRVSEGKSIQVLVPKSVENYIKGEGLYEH
# Protein Wnt-3a, sequence (P27467 whole entry): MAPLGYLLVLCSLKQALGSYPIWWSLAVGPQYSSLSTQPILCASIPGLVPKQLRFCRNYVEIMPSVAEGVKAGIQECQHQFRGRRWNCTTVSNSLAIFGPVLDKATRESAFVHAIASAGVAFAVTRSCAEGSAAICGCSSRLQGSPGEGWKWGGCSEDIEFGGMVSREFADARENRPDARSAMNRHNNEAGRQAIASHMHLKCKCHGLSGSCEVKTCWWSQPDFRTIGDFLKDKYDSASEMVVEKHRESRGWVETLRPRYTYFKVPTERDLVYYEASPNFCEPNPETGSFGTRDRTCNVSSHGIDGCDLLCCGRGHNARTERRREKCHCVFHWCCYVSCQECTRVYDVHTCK
# T2 sequence (P63165 whole entry): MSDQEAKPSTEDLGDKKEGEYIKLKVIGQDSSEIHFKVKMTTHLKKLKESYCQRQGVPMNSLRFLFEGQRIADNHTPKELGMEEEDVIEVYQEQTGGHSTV
# Photoreceptor-specific nuclear receptor, sequence (Q9Y5X4 whole entry, the tested form may be a part): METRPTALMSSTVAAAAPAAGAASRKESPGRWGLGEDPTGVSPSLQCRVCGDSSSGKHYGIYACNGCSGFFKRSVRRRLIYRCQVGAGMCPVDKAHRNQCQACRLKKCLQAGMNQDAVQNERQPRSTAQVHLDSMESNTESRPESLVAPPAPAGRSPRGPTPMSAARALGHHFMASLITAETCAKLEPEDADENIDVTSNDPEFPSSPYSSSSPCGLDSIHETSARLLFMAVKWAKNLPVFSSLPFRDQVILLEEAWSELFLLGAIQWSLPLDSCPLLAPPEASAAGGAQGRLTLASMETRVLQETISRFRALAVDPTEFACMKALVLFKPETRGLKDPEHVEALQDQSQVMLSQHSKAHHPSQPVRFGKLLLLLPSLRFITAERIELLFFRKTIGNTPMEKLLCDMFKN
# Glucose-6-phosphate 1-dehydrogenase, sequence (P11413 whole entry): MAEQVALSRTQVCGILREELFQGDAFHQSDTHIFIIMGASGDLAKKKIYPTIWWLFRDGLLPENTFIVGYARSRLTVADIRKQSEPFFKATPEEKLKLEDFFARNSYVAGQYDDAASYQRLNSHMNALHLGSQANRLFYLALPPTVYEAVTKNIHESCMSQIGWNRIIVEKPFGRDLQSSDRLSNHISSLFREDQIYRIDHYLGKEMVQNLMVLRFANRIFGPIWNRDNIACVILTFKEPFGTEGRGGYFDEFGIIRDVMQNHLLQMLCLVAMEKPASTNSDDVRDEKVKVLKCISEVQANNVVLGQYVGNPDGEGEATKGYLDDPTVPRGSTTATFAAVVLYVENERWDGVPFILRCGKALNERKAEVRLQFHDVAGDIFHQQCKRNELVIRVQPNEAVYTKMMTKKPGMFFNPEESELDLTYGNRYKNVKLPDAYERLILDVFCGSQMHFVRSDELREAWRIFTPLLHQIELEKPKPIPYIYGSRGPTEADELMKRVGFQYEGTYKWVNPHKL
structure (smiles),measurement,setting,value
CN1/C(=C\C(=O)COC(=O)c2ccc(O)c(O)c2)C(C)(C)c2ccccc21,IC50,[1],0.454 µM (active)
same,AC50,[2],> 20 µM (inactive)
same,IC50,[3],0.784 µM (active)
same,AC50,[4],6.68 µM (active)
COc1ccc(NC(=O)Nc2nnc(-c3ccccc3SCc3ccccc3)s2)cc1,EC50,[5],> 89.2 µM (inactive)
COc1cc(NC(=O)Nc2nc(C(N)Cc3ccc(C(F)(F)F)cc3)cs2)cc(OC)c1OC (stereo not given),EC50,[5],> 89.2 µM (inactive)
Cc1[nH]c2ccc(C(=O)OCC(=O)Nc3cccc(S(N)(=O)=O)c3)cc2c1C,IC50,[6],0.624 µM (active)
same,IC50,[7],> 66.6 µM (inactive)
Cc1n[nH]c(O)c1C(c1ccc(-c2ccc(Cl)c(Cl)c2)o1)c1c(C)n[nH]c1O,CC50,[8],28.1 µM (active)
same,CC50,[9],20.8 µM (active)
same,CC50,[10],15.2 µM (active)
CN(C)c1nc(=NCc2cccs2)ss1,CC50,[11],19 µM (active)
same,IC50,[12],134 µM (active)
same,IC50,[13],> 80 µM (inactive)
same,CC50,[14],100 µM (active)
O=S(=O)(c1ccc2c(c1)nc(COc1ccc(Cl)cc1)n2CC1CCCO1)N1CCOCC1 (stereo not given),IC50,[15],4.1 µM (active)
same,EC50,[16],19.6 µM (active)
same,EC50,[17],15.8 µM (active)
same,EC50,[18],> 120 µM (not active)
C#Cc1ccc([C@H]2C=C(C(=O)NCc3nc4ccccc4[nH]3)O[C@@H](OCc3ccc(CO)cc3)C2)cc1,IC50,[19],10.5 µM (active)
same,IC50,[20],20.7 µM (active)
O=C(OC(c1ccccc1)c1nccc2ccccc12)c1ccccc1 (stereo not given),IC50,[21],36.1 µM (inactive)
CC(=O)O[C@]1(C(C)=O)CC[C@H]2[C@@H]3C=C(C)C4=CC(=O)CC[C@]4(C)[C@H]3CC[C@@]21C [MEGESTROL ACETATE],AC50,[22],11 µM (active)
COC(=O)C1=C(COc2ccccc2)NC(=O)NC1c1ccc(Br)cc1 (stereo not given),IC50,[6],15.2 µM (active)
same,IC50,[7],> 66.6 µM (inactive)
CC(C)(C)c1cc(Cl)ccc1OCCOCCN1CCCC1,IC50,[12],104 µM (active)
same,AC50,[23],6.93 µM (active)
same,CC50,[14],67.4 µM (active)
COc1ccc(-c2cc(C(=O)Nc3cc(Cl)ccc3O)no2)cc1,IC50,[24],2.91 µM (active)
CCOC(=O)CSc1nc2cc(OC)ccc2cc1C#N,EC50,[25],> 99 µM (inactive)
same,EC50,[26],> 99 µM (inactive)
COc1ccc(-c2csc(C3=C(N)N(Cc4ccc(Cl)cc4)CC3=O)n2)cc1OC,EC50,[5],> 89.2 µM (inactive)
same,EC50,[16],> 120 µM (not active)
same,EC50,[17],85.3 µM (active)
same,EC50,[18],32.9 µM (active)
Cc1ccc2[nH]c(=O)c(CN(CCc3ccccc3)C(c3nnnn3Cc3ccco3)C(C)C)cc2c1 (stereo not given),IC50,[19],12.1 µM (active)
same,IC50,[20],20 µM (active)
O=C(N[C@H]1C/C=C\C[C@@H](CC(=O)N(CCO)Cc2ccccc2)C(=O)N[C@H](Cc2c[nH]c3ccccc23)COC1=O)OCC1c2ccccc2-c2ccccc21,IC50,[15],17.8 µM (active)
COc1ccc(NC2c3ccccc3C(=O)N2Cc2ccccc2Cl)cc1OC (stereo not given),IC50,[21],1.5 µM (active)
CCCCC[C@@H]1C=C(C(=O)O)[C@H](c2ccc(Cl)cc2)N1S(=O)(=O)c1ccc(C)cc1,CC50,[9],> 40 µM (active)
same,IC50,[27],42.3 µM (active)
CC(=O)N1CCN(c2ccc([N+](=O)[O-])cc2C=C2C(=O)NC(=O)NC2=O)CC1,AC50,[22],8.51 µM (active)
COc1ccccc1CN(Cc1nc(O)c2ccccc2n1)S(=O)(=O)c1ccc(C)cc1,IC50,[15],32.7 µM (inactive)
C=CCn1c(=S)[nH]c2scc(-c3ccc(C)o3)c2c1=O,CC50,[9],37.2 µM (active)
Cc1nc(=O)c(-c2ccccc2)c(C)n1-c1ccc(Br)cc1,AC50,[22],15.6 µM (active)
